The values below come from patent US5188950A, “Method of preparing HIV protease inhibitors” (Merck & Co., Inc., priority 1992, dated 1993).

Several values for one entry are separate records, joined by “and”; a condition that tells them apart may be missing. Equal values may be shown once.

One data set has as its target T1, HIV protease (Human immunodeficiency virus type 1 group M subtype B, UniProt P12497).
T1 construct: the protease expressed in Escherichia coli; made in house; host or cells: Escherichia coli
Briefly: Inhibition of microbial expressed viral protease (peptide substrate cleavage, HPLC of products). The class given is biochemical. The note with it: estimated activities; compounds as isolated from rat liver slices; pH 5.5, 2 hours at 36° C., 283 pM protease. Here is the method:
Inhibition studies of the reaction of the protease expressed in Escherichia coli with a peptide substrate [Val-Ser-Gln-Asn-(betanapthyl)Ala-Pro-Ile-Val, 0.665 mg/mL at the time the reaction is initiated] were carried out. Aliquots of 40 μl of substrate in substrate buffer (60 mM Na acetate, pH 5.5, in 0.117% BSA) were combined with 10 μl aliquots of various concentrations of inhibitor. The reaction was initiated by the addition of 10 μl of 1.7 nM protease in a solution of 0.05M Na acetate, pH 5.5, in 10% glycerol, 1 mM DTT, 1 mM EDTA, and 64 μM octoxynol-9.5 to yield a final concentration of 283 pM protease. Incubation proceeded for 2 hours at 36° C. The reaction was quenched with 75 ul of 5% phosphoric acid. Products of the reaction were separated by HPLC. The extent of inhibition of the reaction was determined from the peak heights of the products.

Data set [1] can be described thus: Biotransformation of L-689,502 by rat liver slices. Type of data set: in vitro ADME. The note with it: for metabolite share of the total metabolites: rat liver slices incubated with L-689,502, pH 7.4, 37° C., % of the total metabolites. Here is the method: L-689,502 (5.65 μmole) was incubated at pH 7.4, 37° C., with rat liver slices (1 cm wide, 200-300μ 3.7 g) in 100 ml of Williams' Medium E (composition described in Sigma commercial circular, pages 1-5, herein incorporated by reference for this purpose). A gradual increase in the metabolites in an organic extract of the medium was observed over a period of 5 hours when ~31% of .he drug was metabolized. Three of the major metabolites M1 (6.1% of the total metabolites) and M2 (6.3%) and M4 (12.1%) were characterized by ^1 H-NMR and FAB/Mass spectroscopies. Exact mass measurements, by high resolution FAB/MS, for M1 and M2 gave a molecular ion at m/z 690.375305, which computed to an empirical formula of C39 H52 N3 O8 for the protonated form. The M4 peak was also matched with a synthetic standard by HPLC, MS and NMR.

Data set [2] can be described thus: Biotransformation of L-689,502 by dog liver slices. Type of data set: in vitro ADME. The note with it: dog liver slices incubated with L-689,502; for metabolite share of the total metabolites: % of the total metabolites.

For `CC(C)(C)OC(=O)N[C@@H](Cc1ccccc1)[C@@H](O)C[C@@H](Cc1ccc(OCCN2CCOCC2)cc1)C(=O)N[C@H]1c2cccc(O)c2C[C@H]1O` [M2], on HIV protease, the IC50 (commonly the concentration that inhibits the measured activity by half) was 1.3 nM. Besides, the figures for the “metabolite share of the total metabolites” value (“metabolite share” for short) in data set [1] and in data set [2] were 6.3% and 1.6%, respectively.

Turning to `CC(C)(C)OC(=O)N[C@@H](Cc1ccccc1)[C@@H](O)C[C@@H](Cc1ccc(OCCN2CCOCC2=O)cc1)C(=O)N[C@H]1c2ccccc2C[C@H]1O` [M4], at HIV protease, the IC50 was about 0.5 nM. Moreover, the “metabolite share” value in data set [1] was determined as 12.1%. For the same compound, the “amount of metabolite peak (in words)” value in data set [2] (HPLC) is listed as “a small amount”.

With `CC(C)(C)OC(=O)N[C@@H](Cc1ccccc1)[C@@H](O)C[C@@H](Cc1ccc(OCCN2CCOCC2)cc1)C(=O)N[C@H]1c2ccccc2C[C@H]1O` [L-689,502, N-(cis-2(R)-hydroxy-1(S)-indanyl)-5(S)-(1,1-dimethylethoxycarbonylamino)-4(S)-hydroxy-6-phenyl-2(R)-[(4-(2-(4-morpholinyl)ethoxy)phenyl)methyl]-hexanamide], the IC50 at HIV protease is 0.93 nM and 0.95 nM. In addition, the metabolised at 5 h, 56.5 µM in data set [1] (over 5 hours, pH 7.4, 37° C., rat liver slices, 5.65 μmole in 100 ml Williams' Medium E, read-out: drug metabolized) is about 31%.

Turning to `CC(C)(C)OC(=O)N[C@@H](Cc1ccccc1)[C@@H](O)C[C@@H](Cc1ccc(OCCN2CCOCC2)cc1)C(=O)N[C@H]1c2ccccc2[C@H](O)[C@H]1O` [M1], the IC50 at HIV protease was 2.7 nM. Moreover, the figures for the “metabolite share” value in data set [1] and in data set [2] were 6.1% and 13.1%, respectively.
